Measurements: patent US10806726B2, “Methods of using indazole-3-carb oxamides and their use as Wnt/B-catenin signaling pathway inhibitors” (Samumed, LLC, priority 2016, dated 2020)

Columns and labels:
[1] = tested on: primary human mesenchymal stem cells (hMSCs); test: Tenocyte differentiation screening in hMSCs (SCXA-positive cells, 4 days); type: cell-based; settings: 96 h, fold change over DMSO
Description: Representative compounds were screened using primary human mesenchymal stem cells (hMSCs) to determine their ability to induce tenocyte differentiation (process by which tendon is developed).
Primary human mesenchymal stem cells (hMSCs) were purchased from Lonza (Walkersville, Md.) and expanded in Mesenchymal Stem Cell Growth Media (Lonza). Cells between passage 3 and 6 were used for the experiments.
Cells were fixed using 4% formaldehyde (Electron Microscopy Sciences), and stained with anti-Sclerasis (anti-SCXA) antibodies (Abgent, San Diego, Calif.) [Webb S., et. al., Retinoic acid receptor signaling preserves tendon stem cell characteristics and prevents spontaneous differentiation in vitro, Stem Cell Research & Therapy 2016, 7:45] overnight at 4° C. […] Number of cells positive for SCXA in each well was quantified using the Celllnsight CX5. Data was normalized to the average of 12 DMSO treated wells on the same plate using Dotmatics Studies module. The normalized averages (fold change over DMSO) of 3 replicate wells for each compound concentration were calculated. Due to solubility limitations of some of the compounds, values for higher doses were manually corrected and curve fitting and EC50 determinations were performed using Dotmatics Studies.
EC50 for each compound is reported.

[2] = tested on: Wnt-responsive promoter driving firefly luciferase in SW480 cells; test: Wnt reporter (SP5 promoter-luciferase) screening assay in SW480 cells; type: cell-based; settings: Homo sapiens, 24-40 h, top concentration ten micromolar
Description: Another screening assay for Wnt activity is described as follows. Reporter cell lines can be generated by stably transducing cells of cancer cell lines (e.g., colon cancer) with a lentiviral construct that include a Wnt-responsive promoter driving expression of the firefly luciferase gene.
Lentiviral constructs can be made in which the SP5 promoter, a promoter having eight TCF/LEF binding sites derived from the SP5 promoter, is linked upstream of the firefly luciferase gene. The lentiviral constructs can also include a hygromycin resistance gene as a selectable marker. The SP5 promoter construct can be used to transduce SW480 cells, a colon cancer cell line having a mutated APC gene that generates a truncated APC protein, leading to de-regulated accumulation of β-catenin.
Cultured SW480 cells bearing a reporter construct can be distributed at approximately 10,000 cells per well into 96 well or 384 well plates. Compounds from a small molecule compound library can then be added to the wells in half-log dilutions using a ten micromolar top concentration. A series of control wells for each cell type receive only buffer and compound solvent. Twenty-four to forty hours after the addition of compound, reporter activity for luciferase can be assayed, for example, by addition of the BrightGlo luminescence reagent (Promega) and the Victor3 plate reader (Perkin Elmer). Readings can be normalized to DMSO only treated cells, and normalized activities can then be used in the EC50 calculations.

Row | EC50 [1] [nM] | EC50 [2] [nM] | SMILES
1 | > 100000 | 71 | O=C(Nc1cnccc1C(F)(F)F)c1n[nH]c2ccc(-c3cncc(CN4CCCCC4)c3)cc12 [compound 47, 5-(5-(Piperidin-1-ylmethyl)pyridin-3-yl)-N-(4-(trifluoromethyl)pyridin-3-yl)-1H-indazole-3-carboxamide]
2 | > 100000 | ≥ 10000 | O=C(Nc1cnccc1C(F)(F)F)c1n[nH]c2ccc(-c3cccnc3)cc12 [compound 48, 5-(Pyridin-3-yl)-N-(4-(trifluoromethyl)pyridin-3-yl)-1H-indazole-3-carboxamide]
3 | > 100000 | 57 | O=C(Nc1cccnc1)c1n[nH]c2ccc(-c3cccc(CN4CCCC4)c3)cc12 [compound 49, N-(Pyridin-3-yl)-5-(3-(pyrrolidin-1-ylmethyl)phenyl)-1H-indazole-3-carboxamide]
4 | > 100000 | 26 | O=C(Nc1cccnc1)c1n[nH]c2ccc(-c3ccc(N4CCCC4)nc3)cc12 [compound 51, N-(Pyridin-3-yl)-5-(6-(pyrrolidin-1-yl)pyridin-3-yl)-1H-indazole-3-carboxamide]
5 | > 100000 | 57 | N#Cc1ccc(NC(=O)c2n[nH]c3ccc(-c4cncc(CN5CCCC5)c4)cc23)cn1 [compound 52, N-(6-Cyanopyridin-3-yl)-5-(5-(pyrrolidin-1-ylmethyl)pyridin-3-yl)-1H-indazole-3-carboxamide]
6 | > 100000 | 63 | O=C(Nc1ccc(N2CCCC2)nc1)c1n[nH]c2ccc(-c3cccnc3)cc12 [compound 53, 5-(Pyridin-3-yl)-N-(6-(pyrrolidin-1-yl)pyridin-3-yl)-1H-indazole-3-carboxamide]
7 | > 100000 | 158 | COc1ccc(-c2ccc3[nH]nc(C(=O)Nc4cccnc4)c3c2)cn1 [compound 54, 5-(6-Methoxypyridin-3-yl)-N-(pyridin-3-yl)-1H-indazole-3-carboxamide]
8 | > 100000 | 44 | O=C(Nc1cccnc1)c1n[nH]c2ccc(-c3cncc(Cc4ccccc4)c3)cc12 [compound 55, 5-(5-Benzylpyridin-3-yl)-N-(pyridin-3-yl)-1H-indazole-3-carboxamide]
9 | 625 | 160 | O=C(Nc1cccnc1)c1n[nH]c2ccc(-c3cncc(Oc4ccccc4)c3)cc12 [compound 56, 5-(5-Phenoxypyridin-3-yl)-N-(pyridin-3-yl)-1H-indazole-3-carboxamide]
10 | > 100000 | ≥ 10000 | O=C(Nc1cnccc1C(F)(F)F)c1n[nH]c2ccc(-c3cncc(CN4CCCC4)c3)cc12 [compound 57, 5-(5-(Pyrrolidin-1-ylmethyl)pyridin-3-yl)-N-(4-(trifluoromethyl)pyridin-3-yl)-1H-indazole-3-carboxamide]
11 | > 100000 | 71 | O=C(Nc1cnccc1NC(=O)C1CC1)c1n[nH]c2ccc(-c3cccnc3)cc12 [compound 58, N-(4-(Cyclopropanecarboxamido)pyridin-3-yl)-5-(pyridin-3-yl)-1H-indazole-3-carboxamide]
12 | 14600 | 3100 | O=C(NC1CCCCC1)c1cncc(-c2ccc3[nH]nc(C(=O)Nc4cccnc4)c3c2)c1 [compound 59, 5-(5-(Cyclohexylcarbamoyl)pyridin-3-yl)-N-(pyridin-3-yl)-1H-indazole-3-carboxamide]
13 | > 100000 | ≥ 10000 | CN1CCN(Cc2cc(F)cc(-c3ccc4[nH]nc(C(=O)Nc5cnccc5C(F)(F)F)c4c3)c2)CC1 [compound 60, 5-(3-Fluoro-5-((4-methylpiperazin-1-yl)methyl)phenyl)-N-(4-(trifluoromethyl)pyridin-3-yl)-1H-indazole-3-carboxamide]
14 | 12300 | 239 | CN1CCN(Cc2cncc(-c3ccc4[nH]nc(C(=O)Nc5cccnc5)c4c3)c2)CC1 [compound 61, 5-(5-((4-Methylpiperazin-1-yl)methyl)pyridin-3-yl)-N-(pyridin-3-yl)-1H-indazole-3-carboxamide]
